± gives the expanded uncertainty stated by the source.
Test: xn = mol fraction of the nth substance listed
Conditions: Gas, Buoyancy - hydrostatic balance with magnetic suspension - one sinker

[HH] [hydrogen] + N#N
mass density (240.05 K, 998 kPa, x2 = 0.95): 13.46 ± 0.073 kg/m3
mass density (240.05 K, 1997 kPa, x2 = 0.95): 27.15 ± 0.074 kg/m3
mass density (240.05 K, 2999 kPa, x2 = 0.95): 41.055 ± 0.075 kg/m3
mass density (240.05 K, 3998 kPa, x2 = 0.95): 55.055 ± 0.077 kg/m3
mass density (240.05 K, 4998 kPa, x2 = 0.95): 69.19 ± 0.078 kg/m3
mass density (240.05 K, 5999 kPa, x2 = 0.95): 83.412 ± 0.079 kg/m3
mass density (240.05 K, 7000 kPa, x2 = 0.95): 97.671 ± 0.08 kg/m3
mass density (240.05 K, 8000 kPa, x2 = 0.95): 111.894 ± 0.081 kg/m3
mass density (240.05 K, 9001 kPa, x2 = 0.95): 126.079 ± 0.082 kg/m3
mass density (240.05 K, 10004 kPa, x2 = 0.95): 140.187 ± 0.082 kg/m3
mass density (240.05 K, 11004 kPa, x2 = 0.95): 154.093 ± 0.083 kg/m3
mass density (240.05 K, 12006 kPa, x2 = 0.95): 167.817 ± 0.082 kg/m3
mass density (240.05 K, 13008 kPa, x2 = 0.95): 181.315 ± 0.083 kg/m3
mass density (240.05 K, 14010 kPa, x2 = 0.95): 194.555 ± 0.083 kg/m3
mass density (240.05 K, 15014 kPa, x2 = 0.95): 207.511 ± 0.083 kg/m3
mass density (240.05 K, 16011 kPa, x2 = 0.95): 220.048 ± 0.083 kg/m3
mass density (240.05 K, 17007 kPa, x2 = 0.95): 232.236 ± 0.083 kg/m3
mass density (240.05 K, 18019 kPa, x2 = 0.95): 244.268 ± 0.083 kg/m3
mass density (240.05 K, 19018 kPa, x2 = 0.95): 255.783 ± 0.083 kg/m3
mass density (240.05 K, 19977 kPa, x2 = 0.95): 266.493 ± 0.084 kg/m3
mass density (240.07 K, 998 kPa, x2 = 0.9): 12.789 ± 0.07 kg/m3
mass density (240.07 K, 999 kPa, x2 = 0.5001): 7.515 ± 0.045 kg/m3
mass density (240.07 K, 1998 kPa, x2 = 0.9): 25.761 ± 0.07 kg/m3
mass density (240.07 K, 2000 kPa, x2 = 0.5001): 14.997 ± 0.045 kg/m3
mass density (240.07 K, 3000 kPa, x2 = 0.9): 38.902 ± 0.072 kg/m3
mass density (240.07 K, 3998 kPa, x2 = 0.9): 52.1 ± 0.073 kg/m3
mass density (240.07 K, 3999 kPa, x2 = 0.5001): 29.835 ± 0.046 kg/m3
mass density (240.07 K, 4998 kPa, x2 = 0.5001): 37.187 ± 0.046 kg/m3
mass density (240.07 K, 4998 kPa, x2 = 0.9): 65.397 ± 0.074 kg/m3
mass density (240.07 K, 5999 kPa, x2 = 0.5001): 44.484 ± 0.046 kg/m3
mass density (240.07 K, 5999 kPa, x2 = 0.9): 78.743 ± 0.075 kg/m3
mass density (240.07 K, 6999 kPa, x2 = 0.5001): 51.715 ± 0.047 kg/m3
mass density (240.07 K, 6999 kPa, x2 = 0.9): 92.089 ± 0.076 kg/m3
mass density (240.07 K, 8000 kPa, x2 = 0.9): 105.416 ± 0.076 kg/m3
mass density (240.07 K, 9001 kPa, x2 = 0.9): 118.665 ± 0.077 kg/m3
mass density (240.07 K, 10003 kPa, x2 = 0.9): 131.826 ± 0.077 kg/m3
mass density (240.07 K, 11003 kPa, x2 = 0.9): 144.806 ± 0.078 kg/m3
mass density (240.07 K, 12006 kPa, x2 = 0.9): 157.633 ± 0.078 kg/m3
mass density (240.07 K, 13007 kPa, x2 = 0.9): 170.235 ± 0.079 kg/m3
mass density (240.07 K, 14004 kPa, x2 = 0.9): 182.528 ± 0.078 kg/m3
mass density (240.07 K, 15010 kPa, x2 = 0.9): 194.68 ± 0.078 kg/m3
mass density (240.07 K, 16012 kPa, x2 = 0.9): 206.497 ± 0.079 kg/m3
mass density (240.07 K, 17016 kPa, x2 = 0.9): 218.039 ± 0.079 kg/m3
mass density (240.07 K, 18009 kPa, x2 = 0.9): 229.14 ± 0.079 kg/m3
mass density (240.07 K, 19021 kPa, x2 = 0.9): 240.134 ± 0.079 kg/m3
mass density (240.07 K, 19857 kPa, x2 = 0.9): 248.956 ± 0.08 kg/m3
mass density (240.08 K, 2989 kPa, x2 = 0.5001): 22.354 ± 0.046 kg/m3
mass density (240.08 K, 7999 kPa, x2 = 0.5001): 58.867 ± 0.047 kg/m3
mass density (240.08 K, 8999 kPa, x2 = 0.5001): 65.94 ± 0.048 kg/m3
mass density (240.08 K, 10002 kPa, x2 = 0.5001): 72.937 ± 0.048 kg/m3
mass density (240.08 K, 11003 kPa, x2 = 0.5001): 79.831 ± 0.048 kg/m3
mass density (240.08 K, 17004 kPa, x2 = 0.5001): 118.935 ± 0.051 kg/m3
mass density (240.08 K, 18010 kPa, x2 = 0.5001): 125.09 ± 0.051 kg/m3
mass density (240.08 K, 19066 kPa, x2 = 0.5001): 131.423 ± 0.051 kg/m3
mass density (240.09 K, 12008 kPa, x2 = 0.5001): 86.648 ± 0.049 kg/m3
mass density (240.09 K, 13002 kPa, x2 = 0.5001): 93.298 ± 0.049 kg/m3
mass density (240.09 K, 14003 kPa, x2 = 0.5001): 99.881 ± 0.05 kg/m3
mass density (240.09 K, 15003 kPa, x2 = 0.5001): 106.346 ± 0.05 kg/m3
mass density (240.09 K, 16007 kPa, x2 = 0.5001): 112.717 ± 0.05 kg/m3
mass density (250.02 K, 998 kPa, x2 = 0.95): 12.909 ± 0.07 kg/m3
mass density (250.02 K, 1998 kPa, x2 = 0.95): 25.981 ± 0.071 kg/m3
mass density (250.02 K, 2999 kPa, x2 = 0.95): 39.211 ± 0.072 kg/m3
mass density (250.02 K, 3999 kPa, x2 = 0.95): 52.525 ± 0.073 kg/m3
mass density (250.02 K, 4999 kPa, x2 = 0.95): 65.908 ± 0.074 kg/m3
mass density (250.02 K, 5999 kPa, x2 = 0.95): 79.318 ± 0.075 kg/m3
mass density (250.02 K, 6999 kPa, x2 = 0.95): 92.739 ± 0.076 kg/m3
mass density (250.02 K, 8001 kPa, x2 = 0.95): 106.147 ± 0.077 kg/m3
mass density (250.02 K, 9002 kPa, x2 = 0.95): 119.485 ± 0.077 kg/m3
mass density (250.02 K, 9998 kPa, x2 = 0.95): 132.641 ± 0.078 kg/m3
mass density (250.02 K, 11003 kPa, x2 = 0.95): 145.769 ± 0.078 kg/m3
mass density (250.02 K, 12002 kPa, x2 = 0.95): 158.648 ± 0.078 kg/m3
mass density (250.02 K, 13002 kPa, x2 = 0.95): 171.33 ± 0.079 kg/m3
mass density (250.02 K, 14006 kPa, x2 = 0.95): 183.836 ± 0.079 kg/m3
mass density (250.02 K, 15009 kPa, x2 = 0.95): 196.059 ± 0.079 kg/m3
mass density (250.02 K, 16008 kPa, x2 = 0.95): 207.967 ± 0.079 kg/m3
mass density (250.02 K, 17012 kPa, x2 = 0.95): 219.644 ± 0.079 kg/m3
mass density (250.02 K, 18015 kPa, x2 = 0.95): 231.002 ± 0.08 kg/m3
mass density (250.02 K, 19020 kPa, x2 = 0.95): 242.075 ± 0.08 kg/m3
mass density (250.02 K, 19863 kPa, x2 = 0.95): 251.12 ± 0.083 kg/m3
mass density (250.03 K, 999 kPa, x2 = 0.5001): 7.213 ± 0.043 kg/m3
mass density (250.03 K, 1999 kPa, x2 = 0.5001): 14.386 ± 0.044 kg/m3
mass density (250.03 K, 2988 kPa, x2 = 0.5001): 21.436 ± 0.044 kg/m3
mass density (250.03 K, 3998 kPa, x2 = 0.5001): 28.596 ± 0.044 kg/m3
mass density (250.03 K, 4998 kPa, x2 = 0.5001): 35.626 ± 0.045 kg/m3
mass density (250.04 K, 998 kPa, x2 = 0.9): 12.26 ± 0.067 kg/m3
mass density (250.04 K, 1998 kPa, x2 = 0.9): 24.659 ± 0.068 kg/m3
mass density (250.04 K, 2987 kPa, x2 = 0.9): 37.024 ± 0.069 kg/m3
mass density (250.04 K, 3998 kPa, x2 = 0.9): 49.722 ± 0.07 kg/m3
mass density (250.04 K, 4998 kPa, x2 = 0.9): 62.325 ± 0.07 kg/m3
mass density (250.04 K, 5999 kPa, x2 = 0.5001): 42.6 ± 0.045 kg/m3
mass density (250.04 K, 5999 kPa, x2 = 0.9): 74.953 ± 0.071 kg/m3
mass density (250.04 K, 6999 kPa, x2 = 0.5001): 49.504 ± 0.046 kg/m3
mass density (250.04 K, 6999 kPa, x2 = 0.9): 87.557 ± 0.072 kg/m3
mass density (250.04 K, 7999 kPa, x2 = 0.5001): 56.336 ± 0.046 kg/m3
mass density (250.04 K, 8000 kPa, x2 = 0.9): 100.114 ± 0.073 kg/m3
mass density (250.04 K, 8999 kPa, x2 = 0.5001): 63.085 ± 0.046 kg/m3
mass density (250.04 K, 9001 kPa, x2 = 0.9): 112.6 ± 0.073 kg/m3
mass density (250.04 K, 9995 kPa, x2 = 0.9): 124.895 ± 0.074 kg/m3
mass density (250.04 K, 9999 kPa, x2 = 0.5001): 69.753 ± 0.046 kg/m3
